Reference: patent US20250032460A1, “METHODS OF TREATING NEUROLOGICAL DISORDERS” (MapLight Therapeutics, Inc., priority 2021, published 2025)
“Also recorded” adds a separate entry of the source.

Columns and labels:
[1] = Post-procedure plasma exposure (salivation study); assay type: in vivo, Sprague Dawley rats; details: male, Sprague Dawley, rat, in vivo, 1.5 mg/kg, Plasma Concentration 1-Hour Post-procedure (mean value), Compound 1
Description: (§1) An in vivo primary pharmacology study evaluating the fesoterodine fumarate dose-response antagonistic effect on Compound 1 induced salivation in anaesthetized male Sprague Dawley rats was conducted. […] Intravenous fesoterodine doses were administered at […]. Fesoterodine was dosed 10 minutes prior to dosage of Compound 1. All animals were normal with no observed abnormality detected in clinical signs or behavior. Salivation was measured by using oral dry swab in anesthetized rats with the calculated difference between the dry swab weight and the wet swab weight indicating the weight of saliva produced. Samples were collected post-dosing for one hour at 10-minute intervals.
At the end of the study period, plasma samples were collected to measure exposure of Compound 1, fesoterodine fumarate, and fesoterodine active metabolite 5-hydroxymethyl tolterodine (5-HMT), also referred to as desfesoterodine, is summarized in Table 2.

[2] = Single ascending dose study with or without fesoterodine fumarate: safety and tolerability; assay type: in vivo, healthy adult volunteers
Description: Compound 1 was administered in a single ascending dose (SAD) study conducted in approximately 54 healthy adult volunteers to investigate Compound 1 pharmacokinetics, safety, and tolerability. The study was conducted in two groups.
Group 1 evaluated multiple dose cohorts administered Compound 1 in a single ascending dose (SAD) manner to establish a maximum tolerated dose (MTD) using the doses described in Table 10.
MTD was established at the dose which produced mild to moderate cholinergic adverse effects. Cholinergic effects were monitored for each dose, including pupillometry and salivation.
Group 2 evaluated tolerability of Compound 1 at Group 1 MTD with or without fesoterodine fumarate co-administration. Subjects received 8 mg of fesoterodine fumarate tablet or matched placebo tablet 4 hours prior to administration of 40 mg of Compound 1.

[3] = in vivo; details: cynomolgus monkey, po
Description: The following example characterized the pharmacokinetics (PK) of Compound 1 in Cynomolgus Monkey following single oral (PO) Compound 1 dose administration. The compound was administered via oral gavage at 0.3 mg/kg and 1 mg/kg, formulated as solution in saline. After dosing, plasma was collected to characterize the PK profiles of Compound 1.

[4] = system: Compound 1 induced salivation; assay: Fesoterodine dose-response antagonistic effect on Compound 1 induced salivation in anaesthetized rats; assay type: in vivo, Sprague Dawley rats
Description: as §1

[5] = Clinical observations during 7-day oral dosing in beagle dogs; details: Group 1: Compound 1 1.5 mg/kg/day PO, individual dog, 1.5 mg/kg/day
[6] = Plasma pharmacokinetics after single-dose intravenous administration in rats; assay type: in vivo, Sprague Dawley rats; details: rat, in vivo, iv, 1.5 mg/kg
Description: The plasma concentration-time profile was evaluated for fesoterodine active metabolite desfesoterodine and Compound 1 in male Sprague Dawley rats following single-dose intravenous administration of fesoterodine (0.25 mg/kg) and Compound 1 (0.5 mg/kg and 1.5 mg/kg) alone and single-dose co-administration. Plasma exposures of desfesoterodine were similar following administration of fesoterodine alone and in combination with Compound 1.

[7] = system: MPTP-Induced Dyskinesia; assay: L-dopa-induced dyskinesia in MPTP-lesioned macaques; assay type: in vivo, cynomolgus macaques
From the text: It is now used in non-human primates to model primary parkinsonian motor symptom phenotypes and subsequent response to therapies such as L-dopa including dyskinesia-thus it can be used as foundational model for LID. See Huat 2012. (Huot P, Johnston T H, Koprich J B, Fox S H, Brotchie J M. L-DOPA pharmacokinetics in the MPTP-lesioned macaque model of Parkinson's disease. Neuropharmacology. 2012 October; 63(5):829-36.) Having both face validity and construct validity, the MPTP non-human primate model is considered the animal model of PD motor symptoms with the highest translational relevance.
A study was conducted in seven female MPTP-lesioned cynomolgus macaques that received chronic repeat treatment with L-dopa and in response manifested stable and reproducible dyskinesia that was choreic and dystonic in nature. Macaque behaviors were assessed following a single 1 mg/kg dose of Compound 1 or vehicle in combination with high-dose of L-dopa delivered as Madopar™ with a dose titrated for LID symptoms in each test animal. The ‘on time’ therapeutic effects and abnormal LID movements were assessed for 6 hours following administration of L-dopa. A single Compound 1 oral dose of 1 mg/kg or vehicle was administered at the same time as L-dopa at the start of behavioral observations. All animals received all treatments in a cross-over design with a minimum of 72 hours between repeat treatments in each animal. The therapeutic and LID behaviors were scored by trained raters supervised by a neurologist in a blinded fashion using high-definition video recordings and the non-human primate dyskinesia rating scale. See Fox 2012. (Fox S H, Johnston T H, Li Q, Brotchie J, Bezard E. A critique of available scales and presentation of the Non-Human Primate Dyskinesia Rating Scale. Mov Disord. 2012 Sep. 15; 27(11):1373-8.)

[8] = Group 2: 40 mg Compound 1, 4 hours after 8 mg fesoterodine fumarate tablet or placebo tablet
[9] = Compound 1 (1.5 mg/kg) IV alone
[10] = Compound 1 1 mg/kg PO with high-dose L-dopa, vs vehicle

Cc1noc([C@@]23CNC[C@@H]2C3)n1 [Compound 1, 1-(3-methyl-[1,2,4]oxadiazol-5-yl)-(1R,5R)-3-aza-bicyclo[3.1.0]hexane]
concentration at 1 h [1]: 608 ng/mL
subjects who reported TEAEs ([2]; Group 1, 1 mg, placebo 50.0%): ~33.3%
subjects who reported TEAEs ([2]; Group 1, 3 mg, placebo 50.0%): About 50.0%
subjects who reported TEAEs ([2]; Group 1, 10 mg, placebo 50.0%): About 50.0%
subjects who reported TEAEs ([2]; Group 1, 20 mg, placebo 50.0%): About 50.0%
subjects who reported TEAEs ([2]; Group 1, 40 mg, placebo 50.0%): ~83.3%
subjects who reported TEAEs ([2]; Group 1, 60 mg, placebo 50.0%): ~100%
deaths, serious TEAEs, discontinuations ([2]; Group 1, 1-60 mg single oral dose): no deaths or serious TEAEs reported, and no subjects discontinued the study due to a TEAE
total treatment-emergent adverse events (TEAEs) ([2]; Group 1, 36 subjects who received any dose of compound 1 (1-60 mg single oral)): 95
subjects with TEAEs (number of the 36 subjects) ([2]; Group 1, any dose of compound 1): 22
subjects with TEAEs ([2]; Group 1, any dose of compound 1, of the 36 subjects): 61.6%
day of onset of TEAEs (Day 1 = day of dosing) [2, 8]: 1 days
deaths, serious or severe TEAEs [2, 8]: no deaths, serious or severe TEAEs reported
most frequent TEAEs observed [2, 8]: salivary hypersecretion and dizziness
number of TEAEs reported [2, 8]: 9
subjects who reported TEAEs [2, 8]: 100.0%
MTD of Compound 1 when administered alone ([2]; single oral dose, healthy subjects): 40 mg
safety and tolerability ([2]; single oral doses ranging from 1 mg to 40 mg, healthy subjects): generally safe and well tolerated
AUC(0-inf) ([3]; 0.3 mg/kg): 212 ng·h/mL
AUC(0-t) ([3]; 0.3 mg/kg): 208 ng·h/mL
Cmax ([3]; 0.3 mg/kg): 216 ng/mL
Tmax ([3]; 0.3 mg/kg): 0.417 h
half-life ([3]; 0.3 mg/kg): 2.82 h
AUC(0-inf) ([3]; 1 mg/kg): 988 ng·h/mL
AUC(0-t) ([3]; 1 mg/kg): 982 ng·h/mL
Cmax ([3]; 1 mg/kg): 686 ng/mL
Tmax ([3]; 1 mg/kg): 1 h
half-life ([3]; 1 mg/kg): 2.28 h
Salivation (mg) (mean value), 10 min [4, 9]: 414.44 mg
Salivation (mg) (mean value), 20 min [4, 9]: 126.95 mg
Salivation (mg) (mean value), 30 min [4, 9]: 59.21 mg
Salivation (mg) (mean value), 40 min [4, 9]: 61.22 mg
Salivation (mg) (mean value), 50 min [4, 9]: 24.79 mg
Salivation (mg) (mean value), 60 min [4, 9]: 22.15 mg
Salivation (mg) (mean value), Total [4, 9]: 708.76 mg
effect on salivation compared to 0.9% saline vehicle control ([4]; Compound 1 IV alone): significant effect in increase in salivation
Clinical Observation ([5]; day 1): For D1005, ptyalism was found 1 hr 20 min after dosing on day 1; also recorded: For D1001, soft feces were found 1 hr 45 min after dosing on day 1; also recorded: For D1005, about 4 mL white foamy mucoid vomitus was found 40 min; also recorded: For D1005, soft feces was found 1 hr after dosing on day 1; also recorded: For D1005, about 8 mL yellow foamy mucoid vomitus was found 1 hr
Clinical Observation ([5]; day 3): For D1005, 20 mL chyme was found 45 min after dosing on day 3; also recorded: For D1005, soft feces was found 80 min after dosing on day 3; also recorded: For D1005, 20 mL liquid feces was found 3.5 hr after dosing on day 3; also recorded: For D1001, ptyalism was found 2 hr after dosing on day 3. 8 hr recover; also recorded: For D1001, 20 mL chyme and ptyalism were found 3.5 hr after dosing; also recorded: For D1002, 10 mL chyme was found 55 min after dosing on day 3; also recorded: For D1002, 10 mL liquid feces and ptyalism were found 80 min after; also recorded: For D1002, ptyalism was found 2 hr after dosing on day 3. 8 hr recover; also recorded: For D1003, ptyalism was found 2 hr after dosing on day 3. 8 hr recover; also recorded: For D1003, 10 mL chyme, 5 mL liquid feces and ptyalism were found; also recorded: For D1003, 10 mL liquid feces and ptyalism were found 4 hr after; also recorded: For D1004, 15 mL chyme and soft feces were found 55 min after dosing; also recorded: For D1004, 2 mL liquid feces and ptyalism were found 80 min after; also recorded: For D1004, 20 mL chyme was found 90 min after dosing on day 3; also recorded: For D1004, ptyalism was found 2 hr after dosing on day 3. 8 hr recover; also recorded: For D1001, 10 mL chyme was found 55 min after dosing on day 3
Clinical Observation ([5]; day 4): For D1005, 15 mL chyme was found 40 min after dosing on day 4; also recorded: For D1005, 10 mL chyme and 10 mL liquid feces were found 2 hr after; also recorded: For D1001, 15 mL chyme was found 2 hr after dosing on day 4; also recorded: For D1001, ptyalism and 15 mL liquid feces were found 3 hr after; also recorded: For D1002, 15 mL chyme and 10 mL liquid feces were found 2 hr after; also recorded: For D1002, ptyalism and 5 mL liquid feces were found 3 hr after dosing; also recorded: For D1003, soft feces was found 3 hr after dosing on day 4; also recorded: For D1004, ptyalism was found 2 hr after dosing on day 4; also recorded: For D1004, 8 mL liquid feces was found 3 hr after dosing on day 4; also recorded: For D1004, soft feces was found 220 min after dosing on day 4
Clinical Observation ([5]; day 5): For D1003, 5 mL chyme was found 2 hr after dosing on day 5.
Clinical Observation ([5]; day 6): For D1005, 15 mL chyme, 30 mL liquid feces and ptyalism were found; also recorded: For D1005, 15 mL chyme was found 2 hr after dosing on day 6; also recorded: For D1001, ptyalism was found 30 min after dosing on day 6. 8 hr; also recorded: For D1001, ptyalism and soft feces were found 1 hr after dosing on day 6; also recorded: For D1002, ptyalism was found 30 min after dosing on day 6. 8 hr; also recorded: For D1002, 10mL liquid feces and ptyalism were found 1 hr after dosing; also recorded: For D1002, 20 mL chyme, 10 mL liquid feces and ptyalism were found; also recorded: For D1003, ptyalism was found 30 min after dosing on day 6. 8 hr; also recorded: For D1003, 30 mL liquid feces, ptyalism and tremor were found 2 hr; also recorded: For D1003, 10 mL chyme was found 3 hr after dosing on day 6; also recorded: For D1004, 10 mL liquid feces and ptyalism were found 1 hr after; also recorded: For D1004, 5 mL chyme was found 3 hr after dosing on day 6
Clinical Observation ([5]; day 7): For D1005, about 8 mL liquid feces was found 2 hr after dosing on day 7; also recorded: For D1001, ptyalism was found 1 hr after dosing on day 7. 4 hr recover; also recorded: For D1001, miosis was found 1 hr after dosing on day 7. 8 hr recover; also recorded: For D1001, about 5 mL liquid feces and about 3 mL yellow liquid; also recorded: For D1002, ptyalism was found 1 hr after dosing on day 7. 4 hr recover; also recorded: For D1003, ptyalism was found 1 hr after dosing on day 7. 4hr recover; also recorded: For D1003, about 10 mL liquid feces was found 2 hr after dosing on day 7; also recorded: For D1004, ptyalism was found 1 hr after dosing on day 7. 4 hr recover; also recorded: For D1004, about 3 mL yellow liquid vomitus was found 1 hr after
Vss as fold of total body water (0.7 L/kg) ([6]; male, Sprague Dawley): approximately 2.4 fold
plasma clearance as % of the normal liver blood flow in rats (55 mL/min/kg) ([6]; male, Sprague Dawley): approximately 50%
AUC(0-t) ([6]; male, Sprague Dawley, AUClast of Compound 1): 917 ng·h/mL
C0 ([6]; male, Sprague Dawley, C0 of Compound 1): 1520 ng/mL
clearance ([6]; male, Sprague Dawley, CL of Compound 1): 27.2 mL/min/kg
half-life ([6]; male, Sprague Dawley, T1/2 of Compound 1): 0.83 h
Vd ([6]; male, Sprague Dawley, VSS of Compound 1): 1.71 L/kg
PK parameters of Compound 1, single-agent vs co-administration with fesoterodine [6]: comparable
anti-parkinsonian benefit of L-DOPA and overall duration of on-time ([7]; Compound 1 1 mg/kg PO with high-dose L-dopa): no reduction
decrease in the duration of ‘bad’ on-time (on-time associated with disabling dyskinesia) [7, 10]: 41%
increase in the duration of ‘good’ on-time (lack of, or only non-disabling dyskinesia) [7, 10]: 143%
reduction of median levels of dyskinesia during the 0-1 h period ([7]; Compound 1 1 mg/kg PO with high-dose L-dopa, vs vehicle, P<0.001): 91%
reduction of median levels of dyskinesia cumulated over the 0-2 h period ([7]; Compound 1 1 mg/kg PO with high-dose L-dopa, vs vehicle, P=0.0156): 42%
median levels of dyskinesia during the 0-1 h period ([7]; Compound 1 1 mg/kg PO with high-dose L-dopa, vehicle 11): 1
median levels of dyskinesia cumulated over the 0-2 h period ([7]; Compound 1 1 mg/kg PO with high-dose L-dopa, vehicle 33): 19
animals with a robust reduction in LID ([7]; Compound 1 1 mg/kg PO, seven animals in final analyses): six of the seven animals
